Laboratory results reported in PMC12606624 (Journal of Chemical Information and Modeling, 2025).

Tests used:
[1] = tested on: monomeric RAD51 (His-RAD51[F86E, A89E]); assay: Cross-linking with BS3 or EDAC, Coomassie blue SDS-PAGE and Western blot; format: binding; conditions: Coomassie blue-stained SDS-PAGE; BS3 1 mM, 1:1; EDAC 0.2% (w/v), 1:2
Protocol: For cross-linking with bis(sulfosuccinimidyl)-suberate (BS3), the purified His-RAD51[F86E, A89E] concentration was adjusted to 24 μM (=0.98 mg/mL). […] The mixture was incubated for 30 min at 20 °C on a thermoblock to allow for complex formation and then cross-linked with a final concentration of 1 mM BS3 (previously solubilized in PBS as a 50 mM stock). After 30 min at the same temperature, 4× Laemmli Sample Buffer (BioRad #1610747) was added to cross-linked samples and boiled at 95 °C for 5 min. […] The mixture was incubated for 1 h at 20 °C to allow for complex formation and then cross-linked with a final concentration of 0.2% (w/v) EDAC (previously solubilized in DMSO as a 10% w/v stock) for 1 h at the same temperature. 4× Laemmli Sample Buffer (BioRad #1610747) was then added to cross-linked samples and boiled at 95 °C for 5 min.
The efficiency of cross-linking reactions was evaluated through Coomassie blue staining and Western blot (WB) analysis. Prepared cross-linked samples were resolved using a 4–15% SDS-PAGE gel (Criterion TGX Precast Midi Protein Gel), which was stained using page blue protein staining solution (Thermo Fisher, 24620) according to manufacturer protocols. […] After three washes in TBS-T, chemiluminescence was detected using the Clarity Western ECL substrate (Biorad, #1705061), and images were recorded using a ChemiDoc MP Imaging System (Biorad). […]

[2] = tested on: monomeric His-RAD51 [F86E, A89E]; assay: Static light scattering (SLS) binding test, SEC columns in tandem
Protocol: Static light scattering (SLS) analyses were performed on a Viscotek GPCmax/TDA (Malvern, UK) instrument, connected in tandem with a series of two TSKgel G3000PWxl size-exclusion chromatography columns (Tosoh Bioscience) as already described in ref . For all the experiments, the system was equilibrated with buffer containing 20 mM Hepes pH 8.00, 100 mM Na2SO4, and 5% glycerol. […] Data analysis was performed using Viscotek software, calibrating the instrument with Bovine Serum Albumin at 5 mg/mL. Data were exported as .csv files and regraphed using GraphPad Prism 10.

His-RAD51 [F86E, A89E] = assay: Biolayer interferometry (BLI), bioBRC4 immobilized on Streptavidin biosensors; format: binding; conditions: 460, 230 and 115 nM His-RAD51 [F86E, two replicates, pH 8.00, 25 °C, 180 s association, 180 s dissociation
Protocol: Biolayer interferometry (BLI) experiments were performed by utilizing an Octet K2 system (Sartorius). All BLI experiments were carried out in an assay buffer containing 20 mM Hepes, pH 8.00, 100 mM Na2SO4, 5% glycerol, 0.05% Tween 20, 0.1% PEG8000, and 0.5 mM Sodium Deoxycholate. The following protocol was applied: 60 s baseline, 240 s loading, 240 s baseline, 180 s association, 180 s dissociation. For every step, shaking at 1000 rpm was enabled, and the temperature was set at 25 °C. Streptavidin Octet biosensors (18-5019, Sartorius) were initially dipped into assay buffer to record an initial baseline for 60 s. BioBRC4 was solubilized in 100% DMSO at a 2 mM concentration, diluted at a final 1 μM concentration in assay buffer, and then immobilized to the Streptavidin sensor through a 240 s loading step. After the loading stage, a second baseline of 240 s was recorded in wells containing only assay buffer to verify the stability of the signal and remove unbound peptide. […] Data were analyzed using Octet Analysis Studio 12.2 by subtracting, from recorded sensorgrams, the signals of both the reference well and reference sensors to remove the signals due to nonspecific binding. The recorded sensorgrams were corrected by aligning to the average of the second baseline steps and applying Savitzky–Golay filtering and interstep correction based on the second baseline step. […]

binding to monomeric RAD51 (His-RAD51 [F86E, A89E]): showing the binding of monomeric His-
Substance: Bio-Ahx-KEPTLLGFHTASGKKVKIAKESLDKVKNLFDEKEQ-COOH [bioBRC4, modified version of BRC4 harboring a biotin at the N-ter]
cross-linking to monomeric RAD51, BS3 versus EDAC [1]: BS3 cross-linked bioBRC4 to the monomeric RAD51 more effectively than EDAC | binding to monomeric RAD51 ([2]; SLS and BLI (two orthogonal methods), SLS: RAD51 [F86E, A89E] 24 μM, 1 h at 25 °C, 4-fold excess peptide, 20 mM Hepes pH 8.00, 100 mM Na2SO4, 5% glycerol, 5% DMSO for BioBRC4): confirmed the binding of bioBRC4 to monomeric RAD51 | effect of biotin modification on binding to monomeric RAD51 ([2]; bioBRC4 vs BRC4, assessed from SLS and BLI (Figure S3)): did not negatively affect its binding to monomeric RAD51
